From patent US20080160088A1, “COMPOSITION CONTAINING HYDROXYAPATITE AND A CALCIUM SALT” (L'OREAL, priority 2006, published 2008)

Tested on: Episkin™ reconstructed epidermides
Test: Diffusion of radioactively labelled caffeine through Episkin reconstructed epidermides (barrier function)
Type: cell-based
Conditions: 200 μg/ml; for Reduction of the passage of caffeine after 2 hours of application (in %): relative to the control
Experimental: Hydroxyapatite in the form of particles sold under the name Hydroxysomes™ by LSC and their combination with a calcium D-pantetheine sulfonate sold by SOGO Pharmaceutical were tested on an in vitro model to evaluate the overall effect of this combination on the barrier function of the skin.
This test consists in applying the test active agents to Episkin™ reconstructed epidermides differentiated on D13, and then, after incubation for 5 days, in applying radioactively labelled caffeine and monitoring the diffusion of the labelled caffeine through the reconstructed epidermides.
Vitamin C, which is known to improve the epidermal barrier function via stimulation of the synthesis of the epidermal lipids, is used as a reference molecule for this test (positive control). Water is used as a negative control.
Differentiated (D13) Episkin™ epidermides were placed in 12-well plates containing 2 ml of differentiation medium and were precultured at 37° C. and 5% CO2 for 24 hours. After incubation, the epidermides were treated topically with 100 μl of each concentration of test product or of the reference product (vitamin C).
Control epidermides were treated topically with 100 μl of water.
The epidermides were then incubated at 37° C. and 5% CO2 for 5 days, with changing of the medium and new application of the active agents after 2 days.
The treatments were performed in quintuplicate (n=5).
Four epidermides were used for the passage of caffeine and one “control” epidermis was kept to perform histology at the end of the experiment.
After treatment with the test active agents and the reference product (vitamin C), the epidermides were washed and the caffeine was applied to the surface of each epidermis at a rate of 100 μl containing 2 μCi/ml (0.04 mM) of radioactive caffeine and 0.35 mM of cold caffeine, which corresponds to about 500 000 cpm total.
The % activity of caffeine after 2 hours of application was measured.

SMILES: O=C1O[C@H]([C@@H](O)CO)C(O)=C1O [Vitamin C]
- activity at 200 µg/mL (topical 5 days, caffeine after 2 hours of application, read-out: % activity relative to the control): 59%
- Reduction of the passage of caffeine after 2 hours of application (in %): −41%
- Reduction of the passage of caffeine after 2 hours of application (in %) (listed as vitamin C): −41%
